Measurements as given in patent publication US9133230B2, “Hydrazone derivatives having potent antitumor activity toward multi-drug resistant tumor cells” (THE UNITED STATES OF AMERICA AS REPRESENTED BY THE …, priority 2011, dated 2015).

Experiments:
Type in all cases: cell-based
[1] = system: human cervical adenocarcinoma HeLa; assay: MTS cytotoxicity assay, HeLa; conditions: Homo sapiens, HeLa, 48 h incubation
Protocol: (§1) In order to obtain information about the growth-inhibiting action of hydrazones reported in the present invention on tumor cells, growth inhibition was assessed for the following human tumor cell lines: human myelogenous leukemia K562, human cervical adenocarcinoma HeLa, human colon adenocarcinoma Caco-2, human colon carcinoma HT-29, human colon carcinoma HCT-15, and human breast carcinoma MCF-7.
(§2) The K562, HeLa, HT-29, HCT-15, Caco-2, and MCF-7 cell lines were obtained from the American type Culture Collection (ATCC, Manassas, Va.). K562 cells were maintained in RPMI 1640 medium (Gibco/Life Technologies, Gaithersburg, Md.) containing 10% heat-inactivated fetal bovine serum (FBS) (Atlanta Biologicals, Atlanta, Ga.) and 10000 U/L penicillin and 50 mg/L streptomycin. HeLa, HT-29, HCT-15, Caco-2 and MCF-7 cells were maintained in MEM with Earl's balanced salts, 10% FBS, penicillin, and streptomycin as above. Logarithmically growing HT-29, Caco-2, and MCF-7 cells were incubated with 0.05% trypsin containing 1 mM EDTA at 37° C. for about 5 min until cells were nonadherent and formed a single cell suspension. Trypsin activity was neutralized by adding 20-fold excess of the serum-containing medium. Cells were cultured at 37° C. in an atmosphere of air and 5% CO2.
(§3) Cytotoxicity assays were conducted by tetrazolium reduction of 3-(4,5-dimethylthiazol-2-yl)-5-(3-carboxymethoxyphenyl)-2-(4-sulfophenyl)-2H-tetrazolium (MTS) with N-methylphenazonium methyl sulfate (PMS) (CellTiter Assay, Promega, Madison, Wis.). Logarithmically growing cells were plated in 0.1 mL aliquots in 96-well microtiter plates. Cells were plated at an initial density of about 5000 cells/mL and allowed to acclimatize for 24 h. Cell suspensions were treated with various dilutions of compounds in triplicate, mixed well, and allowed to incubate for 48 h at 37° C. in an atmosphere of air and 5% CO2. To the cell suspension was added 20 μL of tetrazolium reagent, the mixture was incubated for 2 h at 37° C. in an atmosphere of air and 5% CO2, and absorbance at 490 nm was read by microplate reader. Control plates with serial dilutions of cell types were counted as a control for the assay. In all cases, controls indicated a linear response versus cell number, R^2≧0.99.

[2] = system: human colon carcinoma HT-29; assay: MTS cytotoxicity assay, HT-29; conditions: Homo sapiens, HT-29, 48 h incubation
Protocol: as §1, §2, §3

[3] = system: nonsmall cell lung cancer cell lines; assay: NCI 60 human tumor cell line screen, NSCL; conditions: Homo sapiens, arithmetic mean of two to nine cancer cell lines, read-out: Inhibitory concentration GI50, NSCL
Description: (§4) Selected compounds were submitted for testing in the organ-specific panel of human tumor cell lines at the National Cancer Institute, Bethesda, Md. This screen utilized 60 human tumor cell lines, representing leukemia, melanoma, and cancers of the lung, colon, brain, ovary, kidney, prostate, and breast (Boyd, M. R., “Status of the NCl preclinical antitumor drug discovery screen”. In Principles and practice of oncology updates; De Vita, V. T., Jr. Hellman, S., Rosenberg, S. A., Eds.; Lippincott: Philadelphia, Pa., 1989; Vol. 3, pp 1-12).
(§5) The MG MID value is the average of the GI50 values for all the cell lines tested for drug concentrations in the range of 10^−4-10^−8 M (See website domain: dtp.nci.nih.gov/dtp).

melanoma cell lines = assay: NCI 60 human tumor cell line screen, melanoma; conditions: Homo sapiens, arithmetic mean of two to nine cancer cell lines, read-out: Inhibitory concentration GI50, melanoma
Description: as §4, §5

renal cancer cell lines = assay: NCI 60 human tumor cell line screen, renal; conditions: Homo sapiens, arithmetic mean of two to nine cancer cell lines, read-out: Inhibitory concentration GI50, renal
Description: as §4, §5

[4] = system: human colon adenocarcinoma Caco-2; assay: MTS cytotoxicity assay, Caco-2; conditions: Homo sapiens, Caco-2, 48 h incubation
Protocol: as §1, §2, §3

[5] = system: human breast carcinoma MCF-7; assay: MTS cytotoxicity assay, MCF-7; conditions: Homo sapiens, MCF7, 48 h incubation
Protocol: as §1, §2, §3

[6] = system: human colon carcinoma HCT-15; assay: MTS cytotoxicity assay, HCT-15; conditions: Homo sapiens, HCT-15, 48 h incubation
Protocol: as §1, §2, §3

colon cancer cell lines = assay: NCI 60 human tumor cell line screen, colon; conditions: Homo sapiens, arithmetic mean of two to nine cancer cell lines, read-out: Inhibitory concentration GI50, colon
Description: as §4, §5

[7] = system: human colorectal carcinoma HT29; assay: Annexin-V FACS analysis of apoptosis; conditions: FIGS. 3 and 4, treated versus control cells
Protocol: This activation was through ERK signaling and not through JNK signaling, resulting in PARP cleavage after 16 h. […] Activation of NFkB (p50) was also observed following treatment with these compounds.

[8] = system: human colorectal carcinoma HT29; assay: Western blot of signal transduction pathways in HT29 cells; conditions: HT29, IC50 dose
Protocol: The newly synthesized hydrazones RPC038, RPC042, and RPC046 had shown anti-tumor activity against 60 human cancer cell lines panel of the National Cancer Institute and on multi-drug resistant cell lines. The present studies were conducted to evaluate their action on signal transduction pathways in human colorectal carcinoma HT29. All the three compounds were examined at their IC50 doses.
Human colorectal carcinoma HT29 cells were obtained from the National Cancer Institute, Bethesda, Md., USA, and maintained in 5% CO2 at 37° C. in minimum essential media (Life Technologies, Inc., Grand Island, N.Y., USA) supplemented with 1% penicillin, streptomycin (Invitrogen, Carlsbad, Calif., USA), and 10% fetal bovine serum for optimal growth. HT29 cells (1×10^6) were plated in […], and 24 h later, fresh media was added and treated with the RPC038, RPC042 and RPC046 for indicated time points (2, 4, 8, 16 and 24 h). The cells were then washed with cold phosphate buffered saline (PBS) and taken in 1 ml PBS on ice and centrifuged at 4° C. The pellet was resuspended in appropriate volumes of radio immunoprecipitation assay buffer with protease inhibitor, kept on ice for 45 min and subsequently centrifuged at 4° C. An aliquot of supernatant (protein extract) was used to estimate the protein concentration. An aliquot of protein extract (40 μg) was subjected to Western blot analysis on a 12% polyacrylamide gel and transferred to nitrocellulose membrane. Blots were blocked, incubated with primary anti-pMEK, pERK, pJNK, pcjun, ERK, JNK, Cjun, Caspase-8, Caspase-6, PARP cleavage, or GAPDH antibodies (Cell Signaling Technology, Danvers, Mass.) and then conjugated with a secondary anti-mouse or an anti-rabbit horseradish […] antibody, and detected by ChemiDoc™ XRS+ System with Image Lab™ Software.

[9] = system: 60 human tumor cell lines; assay: NCI 60 human tumor cell line screen, all cell lines
Description: as §4, §5

For `C(=NNc1ncnc2[nH]cnc12)c1ccccn1` [I-18, 6-(2-(Pyridin-2-ylmethylene)hydrazinyl)-9H-purine], the GI50 [1] was 1.9 µM, the GI50 [2] was 3.5 µM and the GI50 [3] was 1.23 µM. For the same compound, the GI50 (melanoma cell lines) was 0.753 µM, the GI50 (renal cancer cell lines) was 1.48 µM and the GI50 [4] was 2.2 µM. It also gave a GI50 [5] of 3.2 µM, a GI50 [6] of 2 µM and a GI50 (colon cancer cell lines) of 1.37 µM. For the same compound, the “Apoptosis (Annexin-V, FACS analysis)” value [7] was “Apoptosis was also established”, the “phosphorylation of ERK (time)” value ([8]; Western blot pERK) was 4 h and the “phosphorylation of JNK” value ([8]; Western blot pJNK (results not shown)) was “without phosphorylation of JNK”. For the same compound, the “MEK activation (time)” value ([8]; Western blot pMEK) was 2 h, the “activation of cjun (time)” value ([8]; Western blot pcjun) was 6 h and the Caspase activation ([8]; initial studies) was “Caspase-3 activation through Caspase-6 and not through Caspase-8”. For the same compound, the mean GI50 (MG-MID) ([9]; Homo sapiens, average of the GI50 values for all the cell lines tested, drug concentrations 10^−4-10^−8 M, read-out: MG-MID (mean graph midpoint)) was 0.977 µM and the “cells found to be the most sensitive” value ([9]; NCI screen, by cancer type) was “prostate, ovarian, CNS, and melanoma cancer cell lines”.
